Experimental findings from US5786361A, “Pyridazino-, pyrimido-, pyrazino- and triazinoindoles, -pyrrolocycloalkenes or pyrrolooxocycloalkenes, or pyridopyrrolylpyrido compounds, compositions containing them, and use thereof to treat atherosclerosis” (Bayer Aktiengesellschaft, priority 1997, dated 1998) are described below.

The term IC50 denotes the concentration needed to halve the response being measured.

The assay concerns HepG2 cells. Nature of the assay: Inhibition of the release of ApoB-100-associated lipoproteins from liver cells (HepG2), immunoassay. It is filed as cell-based. The settings on record: Homo sapiens; HepG2 culture supernatant; light adsorption at 450 nm vs solvent control; release of ApoB-100-associated particles. As to the method:
1. Inhibition of the release of ApoB-100-associated lipoproteins
The test for detecting the inhibition of the release of ApoB-100-associatedlipoproteins from liver cells was carried out in vitro using cultured liver cells, preferably using cells of the human line HepG2. These cells are cultured under standard conditions in medium for the culture of eucaryotic cells, preferably in RPMI 1640 with 10% foetal calf serum. HepG2 cells synthesize and secrete into the culture supernatant ApoB-100-associated lipoprotein particles which in principle are constructed similarly to the VLDL and LDL particles which are to be found in the plasma.
These particles can be detected using an immunoassay for human LDL. This immunoassay is carried out using antibodies which have been induced in rabbits against human LDL under standard conditions. The anti-LDL antibodies (rabbit anti-LDL-Ab) were purified by affinity chromatography on an immunosorbent using human LDL. These purified rabbit anti-LDL-Ab are adsorbed on the surface of plastic. Expediently, this adsorption takes place on the plastic surface of microtitre plates having 96 depressions, preferably on MaxiSorp plates. If ApoB-100-associated particles are present in the supernatant of Hep-G2 cells, these can bind to the insolubilized rabbit anti-LDL-Abs, and an imunune complex results which is bound to the plastic surface. Unbound proteins are removed by washing. The immune complex on the plastic surface is detected using monoclonal antibodies which have been induced against human LDL under standard conditions and purified. These antibodies were conjugated to the enzyme peroxidase. Peroxidase converts the colourless substrate TMB into a coloured product in the presence of H2 O2. After acidification of the reaction mixture with H2 SO4, the specific light adsorption at 450 nm is determined, which is a measure of the amount of ApoB-100-associated particles which have been secreted into the culture supernatant by the HepG2 cells.
The IC50 value indicates at which substance concentration the light adsorption is inhibited by 50% in comparison with the control (solvent control without substance).
The compound `Cn1c(=O)c2c(c3ccccc3n2Cc2ccc([C@@H](C(=O)N[C@@H](CO)c3ccccc3)C3CCCC3)cc2)n(C)c1=O` (mixture of isomers) [Example 2, 2-(R)- and 2-(S)-2-Cyclopentyl-2-(4-{1,3-dimethyl-1,5-dihydro-2,4-oxo-pyrimido-[5,4-b]indol-5-yl-methyl}phenyl)-aceticacidN-(2-hydroxy-1-(R)-1-phenyl-ethyl)amide] came in with an IC50 of 1.1 nM.

The compound `Cc1nc(C)c2c3ccccc3n(Cc3ccc([C@@H](C(=O)N[C@@H](CO)c4ccccc4)C4CCCC4)cc3)c2n1` [Example 6] returned an IC50 of 0.8 nM.

Compound `Cc1nc(C)c2c3ccccc3n(Cc3ccc(C(C(=O)NCc4ccncc4)C4CCCC4)cc3)c2n1` (centres unmarked) [Example 10] yielded an IC50 of 1 nM.

Compound `Cn1c(=O)c2c3ccccc3n(Cc3ccc([C@H](C(=O)N[C@@H](CO)c4ccccc4)C4CCCC4)cc3)c2c(=O)n1C` [Example 16] displayed a 50% inhibitory concentration (IC50) of 8.9 nM.

`CSc1nnc2c3ccccc3n(Cc3ccc(C(C(=O)N[C@@H](CO)c4ccccc4)C4CCCC4)cc3)c2n1` (some centres unmarked) [Example 26] came in with an IC50 of 1.8 nM.
